{
  "source": "patent US20100111965A1",
  "about": "“COMBINATION THERAPY” (FUSION ANTIBODIES LIMITED, priority 2006, published 2010)",
  "key": {"[1]": {"tested_on": "H630 p53 mutant colorectal cancer cell", "assay": "Western blot of AREG protein in H630 p53 mutant lysates after chemotherapy", "assay_type": "cell-based, human", "details": "48 hour treatment, two separate experiments", "description": "FIG. 4 illustrates analysis of AREG protein 14, expression in H630 p53 mutant colorectal cancer cell lysates following a 48 hour CPT11 treatment. Western blots were probed using an anti-amphiregulin antibody. […] HCT 116, RKO, HT 29 and H630 are human colorectal carcinoma cell lines. After different time exposure to chemotherapy the cells were harvested, and washed in 1×PBS. The cell pellet was then lysed in a suitable amount of 1×RIPA lysis buffer (150 mM NaCl, 10 mM Tris at pH 7.2, 0.1% SDS, 1.0% triton X-100 and 5 mM.EDTA) supplemented with protease inhibitors. The cell lysate was briefly vortexed, incubated on ice for 10 min and then centrifuged at 12,000 rpm to remove cell debris. Following centrifugation, the lysate supernatant was removed to a fresh eppendorf tube. Protein concentrations were assayed using the BCA Protein Assay (Pierce) according to the manufacturer's instructions. The absorbance of each sample at 620 nm was assayed using a microplate reader. A standard BSA curve was plotted for each experiment and the protein concentration of each sample calculated. To each sample an equal volume of 5× Western sample buffer and 10% of the final volume of β-mercaptoethanol (Sigma) was added. […] Protein bands were detected by exposure to autoradiograph which was subsequently developed. […]"}, "[2]": {"tested_on": "H460 lung cancer cells", "assay": "RT-PCR of AREG RNA in H460 lung cancer cells after chemotherapy", "assay_type": "cell-based", "details": "48 hour treatment", "description": "FIG. 5 illustrates analysis of AREG and beta actin RNA expression in H460 lung cancer cells with/without either a 48 hour CPT11 treatment or 5-Fu treatment. RNA levels were analyzed following 35 cycle of PCR to determine relative differences in expression between treated and untreated samples.\n(§1) Cells in a log phase of growth were seeded into T75 flask at ˜20% confluence and incubated overnight to allow adherence to the plate. […] Chemotherapy was substituted with saline in control flasks. After different time exposure to chemotherapy the cells were harvested, washed 3 times in PBS and total RNA was isolated using the RNA TAT-60 reagent according to the manufacturer instructions.\nReverse transcription was performed with 2.5 μg of RNA using a High Capacity cDNA Archive kit (Applied Biosystem) according to the instruction of the manufacturer.\nSemi quantitative RT-PCR was performed using a PTC 225 Gradient Cycler (MJ Research Incorporated. The PCR mixture, in a final volume of 25 μL, contains 12.5 μL of 2× Biomix (Bioline, UK), 2 μL of primers (10 μmol/L), 1 μL of cDNA and 9.5 μL of dH2O). PCR conditions were initial denaturation step of 95 C for 10 minutes, followed by 35 cycles of 95° C. for 30 sec for denaturation; as annealing step 55° C. for 30 sec; and extension at 72° C. for 90 sec, with a final extension of 72° C. for 10 minutes. […]"}, "[3]": {"tested_on": "HCT 116 +/+", "assay": "Confocal microscopy of AREG expression in HCT116 after CPT-11", "assay_type": "cell-based, human", "details": "24 h and 48 h, compared to untreated controls"}, "[4]": {"tested_on": "HCT116 cells", "assay": "FACS analysis of cell surface AREG in HCT116 with or without irinotecan", "assay_type": "cell-based, human", "details": "2.5 μM for 48 hours; HCT116 and H460 analysed, cell line not given", "description": "Following treatment cells were stained with AREG monoclonal antibodies and analysed by FACS\nAfter 48 hours cells were washed in PBS and blocked for 20 minutes in Normal Goat Serum. 5×10^5 cells were incubated with AREG antibodies or isotype control for 2 hours and washed in PBS-T. The cells were incubated with a FITC conjugated goat anti-mouse antibody for 1 hour and washed in PBS-T before analysis on BD FACS canto."}, "[5]": {"tested_on": "HCT116", "assay": "RT-PCR of AREG RNA in HCT116 cells after chemotherapy", "assay_type": "cell-based, human", "details": "IC50 dose, 48 hours", "description": "FIG. 1B illustrates analysis of AREG and beta actin RNA expression in HCT116 +/+ with/without a 48 hour CPT11 treatment. RNA levels were analyzed following 35 cycles of PCR to determine relative differences in expression between treated and untreated samples;\nFIG. 6 illustrates AREG upregulation following chemotherapeutic challenge in A) HT29, B) HCT116 and C) MDA-MB231 cells. Cells were treated with/without chemotherapy for 48 hours. RT-PCR was performed with 1 μg of total RNA using primer pairs specific for the human AREG gene or GAPDH. The PCR products were separated on 1.5% agarose gel electrophoresis and visualized by ethidium bromide staining.\nas §1, with “instructions. […]” for “instructions.”\nSemi quantitative RT-PCR was performed using a PTC 225 Gradient Cycler (MJ Research Incorporated. The PCR mixture, in a final volume of 25 μL, contains 12.5 μL of 2× Biomix (Bioline, UK), 2 μL of primers (10 μmol/L), 1 μL of cDNA and 9.5 μL of dH2O). […]"}},
  "data": [
    {"smiles": "CCc1c2c(nc3ccc(OC(=O)N4CCC(N5CCCCC5)CC4)cc13)-c1cc3c(c(=O)n1C2)COC(=O)[C@]3(O)CC", "note": "[CPT-11, irinotecan]", "values": [
      {"measurement": "AREG protein expression (western blot)", "setting": "[1]", "value": "Enhanced AREG expression"},
      {"measurement": "AREG RNA expression (RT-PCR, 35 cycles)", "setting": "[2]", "value": "enhanced expression of AREG"},
      {"measurement": "AREG expression levels (confocal microscopy)", "setting": "[3]", "value": "increasing levels of expression at each time point"},
      {"measurement": "increase in the cell surface expression of AREG (FACS)", "setting": "[4]", "value": "≤ 40", "unit": "%"},
      {"measurement": "AREG mRNA expression (RT-PCR)", "setting": "[5]", "value": "up-regulation"}
    ]}
  ]
}
